PMC5011342, “A high throughput drug screening assay to identify compounds that promote oligodendrocyte differentiation using acutely dissociated and purified oligodendrocyte precursor cells” (BMC Research Notes, 2016)
Like-named read-outs stand apart in the source and are kept apart here.

Key:
[1] = test system: acutely dissociated and purified rat OPCs; assay: Acute OL differentiation assay (MBP expression/cell, immunofluorescent image quantification); format: cell-based; settings: Rattus norvegicus, sheet "All OLga data"
Summary of the method: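 This acute differentiation assay used purified rat OPCs from postnatal day 6–7 pups, seeded into PDL/laminin-coated 96-well plates in differentiation medium lacking PDGF and FGF. Compounds were applied in quadruplicate after a 1–2 h preincubation at 37 °C, 10 % CO2, with 0.1 % DMSO negative and 40 ng/ml T3 positive controls in eight wells. After fixation on DIV4, anti-MBP immunofluorescence images yielded MBP expression/cell.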

expanded OPCs = assay: cells; settings: for viability at 0.1 µM / viability at 1 µM / viability at 10 µM: Rattus norvegicus, 72 h; for 0.1 µM (% DMSO) / 1 µM (% DMSO) / 10 µM (% DMSO): alamarBlue viability of expanded OPCs, relative to DMSO control; for 0.1 µM (% DMSO): compound at 0.1 µM; for 1 µM (% DMSO): compound at 1 µM; for 10 µM (% DMSO): compound at 10 µM
Summary of the method: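 Toxicity screen: compounds added at 0.1, 1 and 10 µM to PDGF-AA-expanded OPCs in 96-well plates, 3-day incubation at 37 °C, 10% CO2, then alamarBlue 1:10 for 4 h with fluorescence readout. Results set screening doses of 10/2, 2/0.4 or 0.4/0.08 µM.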

[2] = 2 uM test compound, relative to quetiapine, read-out: OL differentiation, 2 uM (% Quet)
[3] = 10 uM test compound, relative to quetiapine, read-out: OL differentiation, 10 uM (% Quet)
[4] = read-out: 0.1 µM (% DMSO), alamarBlue viability of expanded OPCs, compound at 0.1 µM, sheet All Tox data
[5] = read-out: 1 µM (% DMSO), alamarBlue viability of expanded OPCs, compound at 1 µM, sheet All Tox data
[6] = read-out: 10 µM (% DMSO), alamarBlue viability of expanded OPCs, compound at 10 µM, sheet All Tox data
[7] = test compound at 2 uM, MBP expression relative to quetiapine, NCC library screen, read-out: 2 uM (% Quet)
[8] = test compound at 10 uM, MBP expression relative to quetiapine, NCC library screen, read-out: 10 uM (% Quet)
[9] = test compound at 2 uM, NCC library screen, relative to quetiapine, read-out: 2 uM (% Quet)
[10] = test compound at 10 uM, NCC library screen, relative to quetiapine, read-out: 10 uM (% Quet)
[11] = read-out: 0.1 µM (% DMSO), alamarBlue viability, NCC library compound at 0.1 µM, sheet "All Tox data"
[12] = read-out: 1 µM (% DMSO), alamarBlue viability, NCC library compound at 1 µM, sheet "All Tox data"
[13] = read-out: 10 µM (% DMSO), alamarBlue viability, NCC library compound at 10 µM, sheet "All Tox data"
[14] = test compound at 0.4 uM, MBP expression relative to quetiapine, NCC library screen, read-out: 0.4 uM (% Quet)

How did the activation at 2 µM [1, 2] turn out when `O=C(NCCN1CCOCC1)c1ccc(Cl)cc1` [Moclobemide] was run?
Its activation at 2 µM is 9.8%.

And the activation at 10 µM [1, 3]?
The activation at 10 µM was -9.7%.

What about the viability at 0.1 µM (expanded OPCs; [4]) of the same compound?
The viability at 0.1 µM was 99.2%.

And the viability at 1 µM (expanded OPCs; [5])?
Its viability at 1 µM is 110%.

And the viability at 10 µM (expanded OPCs; [6])?
Its viability at 10 µM is 113%.

Which activation at 2 µM [1, 7] does the source give for `CC1(C)S[C@@H]2[C@H](NC(=O)[C@H](N)c3ccccc3)C(=O)N2[C@H]1C(=O)O` [Ampicillin] here?
Its activation at 2 µM is -10.9%.

And the activation at 10 µM [1, 8]?
The activation at 10 µM was -36.2%.

And the “0.1 µM (% DMSO)” value (expanded OPCs)?
Its value is 88.7 % DMSO.

And the “1 µM (% DMSO)” value (expanded OPCs)?
The value was 94.1 % DMSO.

And the “10 µM (% DMSO)” value (expanded OPCs)?
The value was 94.1 % DMSO.

Which results are given for `CC(=O)NS(=O)(=O)c1ccc(N)cc1` [Sulfacetamide]?
activation at 2 µM [1, 9]: 11.2%; activation at 10 µM [1, 10]: 0.16%; viability at 0.1 µM (expanded OPCs; [11]): 90.1%; viability at 1 µM (expanded OPCs; [12]): 91.6%; viability at 10 µM (expanded OPCs; [13]): 89.7%

`CC(N)C12CC3CC(CC(C3)C1)C2` (stereo not drawn) [Rimantadine] was tested. Which activation at 0.4 µM [1, 14] did it give?
Its activation at 0.4 µM is -17.2%.

What about the activation at 2 µM [1, 7] of the same compound?
Its activation at 2 µM is -11.2%.

What about the “0.1 µM (% DMSO)” value (expanded OPCs) of the same compound?
The value was 89.9 % DMSO.

What about the “1 µM (% DMSO)” value (expanded OPCs) of the same compound?
Its value is 83.2 % DMSO.

And the “10 µM (% DMSO)” value (expanded OPCs)?
Its value is 32.9 % DMSO.

Which results are given for `CC(C)NCC(O)COc1cccc2ccccc12` (stereo not drawn) [Propranolol]?
activation at 0.4 µM [1, 14]: 0.38%; activation at 2 µM [1, 7]: -14.5%; 0.1 µM (% DMSO) (expanded OPCs): 95.6 % DMSO; 1 µM (% DMSO) (expanded OPCs): 79.5 % DMSO; 10 µM (% DMSO) (expanded OPCs): 32.7 % DMSO

What does the source list for `CC(NC(C)(C)C)C(=O)c1cccc(Cl)c1` (stereo not drawn) [Bupropion]?
activation at 2 µM [1, 2]: 33.6%; viability at 0.1 µM (expanded OPCs; [4]): 94.3%; viability at 1 µM (expanded OPCs; [5]): 98.9%; viability at 10 µM (expanded OPCs; [6]): 128%

Which activation at 2 µM [1, 2] does the source give for `COc1nc(C)nc(Cl)c1N=C1NCCN1` [Moxonidine] here?
Its activation at 2 µM is -1.2%.

And the activation at 10 µM [1, 3]?
The activation at 10 µM was -26.2%.

What about the viability at 0.1 µM (expanded OPCs; [4]) of the same compound?
The viability at 0.1 µM was 85.4%.

And the viability at 1 µM (expanded OPCs; [5])?
The viability at 1 µM was 88.5%.

And the viability at 10 µM (expanded OPCs; [6])?
Its viability at 10 µM is 98.4%.

What does the source list for `CN(C)CCC=C1c2ccccc2CCc2ccccc21` [Amitriptyline]?
activation at 0.4 µM ([1]; test compound at 0.4 uM, NCC library screen, relative to quetiapine, read-out: 0.4 uM (% Quet)): -6%; activation at 2 µM [1, 9]: -23.5%; 0.1 µM (% DMSO) (expanded OPCs): 82.0 % DMSO; 1 µM (% DMSO) (expanded OPCs): 60.1 % DMSO; 10 µM (% DMSO) (expanded OPCs): 18.3 % DMSO

`COc1ccc(C(CN(C)C)C2(O)CCCCC2)cc1` (stereo not drawn) [Venlafaxine] was tested. Which activation at 2 µM [1, 2] did it give?
The activation at 2 µM was 4%.

What about the activation at 10 µM [1, 3] of the same compound?
The activation at 10 µM was -26%.

And the viability at 0.1 µM (expanded OPCs; [4])?
The viability at 0.1 µM was 89.1%.

What about the viability at 1 µM (expanded OPCs; [5]) of the same compound?
Its viability at 1 µM is 85.2%.

What about the viability at 10 µM (expanded OPCs; [6]) of the same compound?
The viability at 10 µM was 76.7%.

What does the source list for `NC(=O)N1c2ccccc2C=Cc2ccccc21` [Carbamazepine]?
activation at 2 µM [1, 7]: -5.2%; activation at 10 µM [1, 8]: -13.7%; 0.1 µM (% DMSO) (expanded OPCs): 107.0 % DMSO; 1 µM (% DMSO) (expanded OPCs): 99.7 % DMSO; 10 µM (% DMSO) (expanded OPCs): 103.7 % DMSO

Which results are given for `COc1ccc(Cl)cc1C(=O)NCCc1ccc(S(=O)(=O)NC(=O)NC2CCCCC2)cc1` [Glyburide]?
activation at 2 µM [1, 9]: -19.5%; activation at 10 µM [1, 10]: -20.2%; 0.1 µM (% DMSO) (expanded OPCs): 95.4 % DMSO; 1 µM (% DMSO) (expanded OPCs): 91.5 % DMSO; 10 µM (% DMSO) (expanded OPCs): 85.2 % DMSO

How did the activation at 2 µM [1, 9] turn out when `O=C1Nc2ccc(Cl)cc2C(c2ccccc2Cl)=NC1O` (stereo not drawn) [Lorazepam] was run?
Its activation at 2 µM is -21.5%.

And the activation at 10 µM [1, 10]?
Its activation at 10 µM is -31.2%.

And the viability at 0.1 µM (expanded OPCs; [11])?
Its viability at 0.1 µM is 90.5%.

What about the viability at 1 µM (expanded OPCs; [12]) of the same compound?
The viability at 1 µM was 81.6%.

And the viability at 10 µM (expanded OPCs; [13])?
The viability at 10 µM was 71.2%.

Which activation at 2 µM [1, 7] does the source give for `CCCC(=O)Nc1ccc(OCC(O)CNC(C)C)c(C(C)=O)c1` (stereo not drawn) [Acebutolol] here?
The activation at 2 µM was 7.8%.

What about the activation at 10 µM [1, 8] of the same compound?
The activation at 10 µM was -5.4%.

And the “0.1 µM (% DMSO)” value (expanded OPCs)?
Its value is 94.3 % DMSO.

And the “1 µM (% DMSO)” value (expanded OPCs)?
Its value is 111.2 % DMSO.

What about the “10 µM (% DMSO)” value (expanded OPCs) of the same compound?
The value was 112.7 % DMSO.

How did the activation at 0.08 µM ([1]; 0.08 uM test compound, relative to quetiapine, read-out: OL differentiation, 0.08 uM (% Quet)) turn out when `CCOC(=O)C1(c2ccccc2)CCN(CCC(C#N)(c2ccccc2)c2ccccc2)CC1` [Diphenoxylate] was run?
The activation at 0.08 µM was -3.7%.

And the activation at 0.4 µM ([1]; 0.4 uM test compound, relative to quetiapine, read-out: OL differentiation, 0.4 uM (% Quet))?
Its activation at 0.4 µM is 12%.

And the viability at 0.1 µM (expanded OPCs; [11])?
The viability at 0.1 µM was 85.6%.

And the viability at 1 µM (expanded OPCs; [12])?
Its viability at 1 µM is 27.7%.

And the viability at 10 µM (expanded OPCs; [13])?
Its viability at 10 µM is 23.2%.
